Measured values from US20190055279A1, “NOVEL POLYPEPTIDES WITH IMPROVED PROTEOLYTIC STABILITY, AND METHODS OF PREPARING AND USING SAME” (TUFTS UNIVERSITY, priority 2015, published 2019).
Values joined by “and” are separate entries in the source; they are usually repeats but may differ in a detail not shown here. Equal values may be shown once. Read-outs that look alike come from different tables or passages of the source. One block for each compound: values may come before it.

Columns and labels:
[1] = target: T1, DPP2 (Homo sapiens, UniProt Q9UHL4)
[2] = target: T2, FAP (Homo sapiens, UniProt Q12884)
T2 sequence (Q12884 1-760): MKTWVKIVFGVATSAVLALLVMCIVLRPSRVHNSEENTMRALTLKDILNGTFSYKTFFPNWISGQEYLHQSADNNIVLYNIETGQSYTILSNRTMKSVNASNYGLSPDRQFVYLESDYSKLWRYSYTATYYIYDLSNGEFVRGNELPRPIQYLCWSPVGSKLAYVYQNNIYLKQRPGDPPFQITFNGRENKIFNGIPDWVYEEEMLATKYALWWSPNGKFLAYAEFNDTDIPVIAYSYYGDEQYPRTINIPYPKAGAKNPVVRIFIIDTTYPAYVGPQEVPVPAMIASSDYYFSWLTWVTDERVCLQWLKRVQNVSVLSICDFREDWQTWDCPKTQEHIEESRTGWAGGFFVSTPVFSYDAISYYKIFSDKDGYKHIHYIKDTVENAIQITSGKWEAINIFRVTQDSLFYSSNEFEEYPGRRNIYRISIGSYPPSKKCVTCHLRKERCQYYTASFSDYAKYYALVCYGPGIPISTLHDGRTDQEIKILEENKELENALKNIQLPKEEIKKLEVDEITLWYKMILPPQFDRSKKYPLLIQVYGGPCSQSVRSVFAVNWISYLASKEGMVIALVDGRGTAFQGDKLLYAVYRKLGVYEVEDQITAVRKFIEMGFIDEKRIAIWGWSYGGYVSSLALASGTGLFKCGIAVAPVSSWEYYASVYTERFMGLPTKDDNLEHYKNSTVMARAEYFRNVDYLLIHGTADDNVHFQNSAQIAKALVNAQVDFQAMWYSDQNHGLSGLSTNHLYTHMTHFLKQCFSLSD

[3] = target: T1, DPP2; assay: Stability assay with or without DPP2, read out by receptor bioassay (FIG. 9A); conditions: incubated with or without DPP2
[4] = target: T2, FAP; assay: Stability assay with or without FAP, read out by receptor bioassay (FIG. 9A, FIG. 18); conditions: incubated with or without FAP
[5] = cited from earlier work
[6] = target: T3, DPP4 (Homo sapiens, UniProt P27487); assay: DPP4 degradation of GLP-2 peptides: incubation with recombinant DPP4, then GLP-2R reporter assay
T3 sequence (P27487 whole entry, species assumed): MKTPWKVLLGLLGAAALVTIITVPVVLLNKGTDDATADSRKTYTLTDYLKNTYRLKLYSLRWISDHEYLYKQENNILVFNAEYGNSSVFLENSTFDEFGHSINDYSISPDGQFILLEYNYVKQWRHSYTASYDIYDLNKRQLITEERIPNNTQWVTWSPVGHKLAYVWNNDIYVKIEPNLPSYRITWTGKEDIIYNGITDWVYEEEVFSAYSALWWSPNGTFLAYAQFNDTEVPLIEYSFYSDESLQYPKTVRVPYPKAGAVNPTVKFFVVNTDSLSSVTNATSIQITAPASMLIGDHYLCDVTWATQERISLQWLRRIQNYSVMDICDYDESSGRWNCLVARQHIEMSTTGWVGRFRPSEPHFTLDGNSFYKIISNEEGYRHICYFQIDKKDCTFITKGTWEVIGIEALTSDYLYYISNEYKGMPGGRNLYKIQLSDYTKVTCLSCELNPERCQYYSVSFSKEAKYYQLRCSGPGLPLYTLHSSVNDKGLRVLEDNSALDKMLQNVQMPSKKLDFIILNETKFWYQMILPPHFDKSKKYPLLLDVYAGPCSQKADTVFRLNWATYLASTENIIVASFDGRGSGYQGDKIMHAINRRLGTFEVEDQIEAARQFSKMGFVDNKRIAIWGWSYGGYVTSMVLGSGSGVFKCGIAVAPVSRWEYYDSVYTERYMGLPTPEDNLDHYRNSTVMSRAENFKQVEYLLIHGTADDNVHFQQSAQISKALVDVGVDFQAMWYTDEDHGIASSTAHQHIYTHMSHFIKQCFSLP
Experimental: (§1) Peptides were incubated with vehicle or recombinant DPP4. Serial dilutions of GLP2-1 and GLP2-4 were then applied to HEK293 cells, which had been transfected with cDNA encoding human GLP-2R and a cAMP-responsive reporter gene.
(§2) Peptides were incubated with recombinant DPP4. Serial dilutions of GLP-2 and GLP2-4 were then applied to HEK293 cells, which had been transfected with cDNA encoding human GLP-2R and a cAMP-responsive reporter gene. […] N=4, mean+SEM.
(§3) DPP4 resistance (FIG. 13): Lipidated peptides are compared with the prototype, F-GLP2-palm. After an overnight incubation (16 hrs) in the presence vs. the absence of DPP4, receptor mediated function is assessed as shown elsewhere herein. As a DPP4 susceptible control, parallel experiments are done using GLP-2. […] Following overnight preincubation, serial dilutions of ligands were prepared and added to GLP-2R expressing cells for 4 hours. A luciferase reporter gene assay was used to monitor Gαs coupled second messenger signaling.

[7] = target: T3, DPP4
Experimental: as §1, §2, §3

[8] = tested on: SBS patients; conditions: after 52 weeks of treatment; cited from earlier work
[9] = tested on: wild type mice; conditions: GLP-2 twice daily over ten days; GATTEX daily; cited from earlier work
[10] = target: T3, DPP4; assay: Sensitivity to DPP4: overnight incubation with recombinant DPP4 or vehicle, then receptor agonist bioassay; conditions: overnight incubation with or without DPP4, readout at cognate receptor
Experimental: Plotting concentration versus the luciferase activity yielded quantitative parameters for combined binding (potency) and signaling (efficacy) in a single step. […] DPP4 treated peptides: 10 μl of 0.26 mM peptide were incubated with 2 μL DPP4 in buffer ±DMSO for 18 hrs. Control peptides: 10 μl of 0.26 mM peptide was added to buffer ±DMSO. The final DMSO concentration was the same for all peptides and all peptides were diluted to 0.26 mM concentrations for the DPP4 assay.
Compounds are incubated overnight at 37° C. in the presence of recombinant DPP4 or vehicle (TRIS buffer). The samples are then assessed in GLP-1R agonist assays.
Compounds were incubated overnight at 37° C. in the presence of recombinant DPP4 or vehicle (TRIS buffer, pH 8.0). The samples were then assessed in GLP1R agonist assays as described elsewhere herein.

SMILES: CC[C@H](C)[C@H](NC(=O)[C@H](CO)NC(=O)[C@H](Cc1ccc(O)cc1)NC(=O)[C@H](CC(=O)O)NC(=O)[C@H](CO)NC(=O)[C@@H](NC(=O)[C@H](Cc1ccccc1)NC(=O)[C@@H](NC(=O)CNC(=O)[C@H](CCC(=O)O)NC(=O)[C@H](C)NC(=O)[C@@H](N)Cc1ccc(O)cc1)[C@@H](C)O)[C@@H](C)CC)C(=O)N[C@@H](C)C(=O)N[C@@H](CCSC)C(=O)N[C@@H](CC(=O)O)C(=O)N[C@@H](CCCCN)C(=O)N[C@H](C(=O)N[C@@H](Cc1c[nH]cn1)C(=O)N[C@@H](CCC(N)=O)C(=O)N[C@@H](CCC(N)=O)C(=O)N[C@@H](CC(=O)O)C(=O)N[C@@H](Cc1ccccc1)C(=O)N[C@H](C(=O)N[C@@H](CC(N)=O)C(=O)N[C@@H](Cc1c[nH]c2ccccc12)C(=O)N[C@@H](CC(C)C)C(=O)N[C@@H](CC(C)C)C(=O)N[C@@H](C)C(=O)N[C@@H](CCC(N)=O)C(=O)N[C@@H](CCCCN)C(=O)NCC(=O)N[C@@H](CCCCN)C(=O)N[C@@H](CCCCN)C(=O)N[C@@H](CC(N)=O)C(=O)N[C@@H](CC(=O)O)C(=O)N[C@@H](Cc1c[nH]c2ccccc12)C(=O)N[C@@H](CCCCN)C(=O)N[C@@H](Cc1c[nH]cn1)C(=O)N[C@@H](CC(N)=O)C(=O)N[C@H](C(=O)N[C@H](C(=O)N[C@@H](CCC(N)=O)C(=O)O)[C@@H](C)O)[C@@H](C)CC)C(C)C)[C@@H](C)CC [GIP, Gastric Inhibitory Polypeptide]
stability to DPP2 (in words) [1]: major potency losses
stability to FAP (in words) [2]: major potency losses

SMILES: CC[C@H](C)[C@H](NC(=O)[C@H](Cc1ccccc1)NC(=O)[C@H](CCC(=O)O)NC(=O)[C@H](CCCCN)NC(=O)[C@H](C)NC(=O)[C@H](C)NC(=O)[C@H](CCC(N)=O)NC(=O)CNC(=O)[C@H](CCC(=O)O)NC(=O)[C@H](CC(C)C)NC(=O)[C@H](Cc1ccc(O)cc1)NC(=O)[C@H](CO)NC(=O)[C@H](CO)NC(=O)[C@@H](NC(=O)[C@H](CC(=O)O)NC(=O)[C@H](CO)NC(=O)[C@@H](NC(=O)[C@H](Cc1ccccc1)NC(=O)[C@@H](NC(=O)CNC(=O)[C@H](CCC(=O)O)NC(=O)[C@H](C)NC(=O)[C@@H](N)Cc1c[nH]cn1)[C@@H](C)O)[C@@H](C)O)C(C)C)C(=O)N[C@@H](C)C(=O)N[C@@H](Cc1c[nH]c2ccccc12)C(=O)N[C@@H](CC(C)C)C(=O)N[C@H](C(=O)N[C@@H](CCCCN)C(=O)NCC(=O)N[C@@H](CCCNC(=N)N)C(N)=O)C(C)C [GLP-1, glucagon-like peptide-1, reference compound]
stability to DPP2 (in words) [3]: major potency losses
stability to FAP (in words) [4]: major potency losses

SMILES: CC[C@H](C)[C@H](NC(=O)[C@H](CO)NC(=O)[C@H](Cc1ccc(O)cc1)NC(=O)[C@H](CC(=O)O)NC(=O)[C@H](CO)NC(=O)[C@@H](NC(=O)[C@H](Cc1ccccc1)NC(=O)[C@@H](NC(=O)CNC(=O)[C@H](CCC(=O)O)NC(=O)[C@H](C)NC(=O)[C@H](Cc1ccc(O)cc1)NCC(F)(F)F)[C@@H](C)O)[C@@H](C)CC)C(=O)N[C@@H](C)C(=O)N[C@@H](CCSC)C(=O)N[C@@H](CC(=O)O)C(=O)N[C@@H](CCCCN)C(=O)N[C@H](C(=O)N[C@@H](Cc1c[nH]cn1)C(=O)N[C@@H](CCC(N)=O)C(=O)N[C@@H](CCC(N)=O)C(=O)N[C@@H](CC(=O)O)C(=O)N[C@@H](Cc1ccccc1)C(=O)N[C@H](C(=O)N[C@@H](CC(N)=O)C(=O)N[C@@H](Cc1c[nH]c2ccccc12)C(=O)N[C@@H](CC(C)C)C(=O)N[C@@H](CC(C)C)C(=O)N[C@@H](C)C(=O)N[C@@H](CCC(N)=O)C(=O)N[C@@H](CCCCN)C(=O)NCC(=O)N[C@@H](CCCCN)C(=O)N[C@@H](CCCCN)C(=O)N[C@@H](CC(N)=O)C(=O)N[C@@H](CC(=O)O)C(=O)N[C@@H](Cc1c[nH]c2ccccc12)C(=O)N[C@@H](CCCCN)C(=O)N[C@@H](Cc1c[nH]cn1)C(=O)N[C@@H](CC(N)=O)C(=O)N[C@H](C(=O)N[C@H](C(=O)N[C@@H](CCC(N)=O)C(=O)O)[C@@H](C)O)[C@@H](C)CC)C(C)C)[C@@H](C)CC [I-4]
DPP4 degradation / resistance (in words) [10]: resistant
DPP4 degradation / resistance (in words) ([10]; listed as I4): stable
stability to DPP2 (in words) [3]: stable
stability to FAP (in words) [4]: stable

The next lines start with results.

DPP4 degradation / resistance (in words) ([6]; GLP-2R readout): degraded by DPP4
loss in potency induced by DPP4 ([6]; GLP-2R readout, N=4): > 40 fold
peptide degraded by DPP4 ([6]; inferred from potency loss): > 97% and ~97%
SMILES: CC[C@H](C)[C@H](NC(=O)[C@H](Cc1ccccc1)NC(=O)[C@H](CC(=O)O)NC(=O)[C@H](CCCN=C(N)N)NC(=O)[C@H](C)NC(=O)[C@H](C)NC(=O)[C@H](CC(C)C)NC(=O)[C@H](CC(N)=O)NC(=O)[C@H](CC(=O)O)NC(=O)[C@H](CC(C)C)NC(=O)[C@@H](NC(=O)[C@@H](NC(=O)[C@H](CC(N)=O)NC(=O)[C@H](CCSC)NC(=O)[C@H](CCC(=O)O)NC(=O)[C@H](CC(=O)O)NC(=O)[C@H](CO)NC(=O)[C@H](Cc1ccccc1)NC(=O)[C@H](CO)NC(=O)CNC(=O)[C@H](CC(=O)O)NC(=O)[C@H](C)NC(=O)[C@@H](N)Cc1cnc[nH]1)[C@@H](C)O)[C@@H](C)CC)C(=O)N[C@@H](CC(N)=O)C(=O)N[C@@H](Cc1c[nH]c2ccccc12)C(=O)N[C@@H](CC(C)C)C(=O)N[C@H](C(=O)N[C@@H](CCC(N)=O)C(=O)N[C@H](C(=O)N[C@@H](CCCCN)C(=O)N[C@H](C(=O)N[C@H](C(=O)N[C@@H](CC(=O)O)C(=O)O)[C@@H](C)O)[C@@H](C)CC)[C@@H](C)O)[C@@H](C)CC [GLP-2, glucagon-like peptide-2, reference compound]
half-life in vivo [5]: 7 min

DPP4 degradation / resistance (in words) [7]: only partial DPP4 resistance
SMILES: CC[C@H](C)[C@H](NC(=O)[C@H](Cc1ccccc1)NC(=O)[C@H](CC(=O)O)NC(=O)[C@H](CCCNC(=N)N)NC(=O)[C@H](C)NC(=O)[C@H](C)NC(=O)[C@H](CC(C)C)NC(=O)[C@H](CC(N)=O)NC(=O)[C@H](CC(=O)O)NC(=O)[C@H](CC(C)C)NC(=O)[C@@H](NC(=O)[C@@H](NC(=O)[C@H](CC(N)=O)NC(=O)[C@H](CCSC)NC(=O)[C@H](CCC(=O)O)NC(=O)[C@H](CC(=O)O)NC(=O)[C@H](CO)NC(=O)[C@H](Cc1ccccc1)NC(=O)[C@H](CO)NC(=O)CNC(=O)[C@H](CC(=O)O)NC(=O)CNC(=O)[C@@H](N)Cc1c[nH]cn1)[C@@H](C)O)[C@@H](C)CC)C(=O)N[C@@H](CC(N)=O)C(=O)N[C@@H](Cc1c[nH]c2ccccc12)C(=O)N[C@@H](CC(C)C)C(=O)N[C@H](C(=O)N[C@@H](CCC(N)=O)C(=O)N[C@H](C(=O)N[C@@H](CCCCN)C(=O)N[C@H](C(=O)N[C@H](C(=O)N[C@@H](CC(=O)O)C(=O)O)[C@@H](C)O)[C@@H](C)CC)[C@@H](C)O)[C@@H](C)CC [Gattex, teduglutide]
in vivo half-life [5]: ~3 h
SBS patients able to reduce their PN regimen by at least 1 day/week [8]: 68%
patients who failed to reduce their PN regimen by even 1 day/week [8]: 32%
treated patients entirely independent of PN [8]: 4 of 52
bowel weight [9]: significant increase in both large and small bowel weights
